Measured values as given in patent US12653191B2, “Active compound combinations” (Bayer Aktiengesellschaft, priority 2020, dated 2026).
Where “and” joins values, the source holds several entries; their conditions need not be identical. Equal entries are not always repeated. Where two headings read alike, the source gives them in different places.

Experiments:
[1] = system: Fusarium culmorum; assay: in vitro-Test with fungal microorganisms, Method A (tables G1-G4); format: cell-based; conditions: Fusarium culmorum, alone, read-out: Efficacy
Protocol: (§1) Example: In Vitro-Test with Fungal Microorganisms
Wells of 96-well microtiter plates are filled with 10 μl of a preparation of test compound or compound combination in methanol+emulsifier alkylaryl-polyglycol-ether. Thereafter, the solvent is evaporated in a hood. At the next step, 100 μl of liquid potato dextrose medium is given into each well, that has been amended with an appropriate concentration of spores or mycelium suspension of the test fungus.
With the aid of a photometer, the extinction in all wells is measured at the wavelength of 620 nm.
The microtiter plates are incubated at 20° C. and 85% relative humidity. The inhibition of growth is determined again photometrically 3-5 days after the application. Efficacy is calculated in relation to the untreated control, 0% efficacy means fungal growth as high as in untreated control while 100% efficacy means no fungal growth is measured.
(§2) The data in tables A1 to A12, B1 to B14, C1 to C10, D1 to D8, E1 to E8, F1 to F11, G1 to G4, H1 to H4 and I1 to I5 were collected according to Method A. The data in tables A13 to A22, B15 to B18, C11 to C20, E9 to E16, F12 to F15, G5 to G15, H5 to H8, I6 to I11 and J1 to J11 were collected according to Method B.

[2] = system: Cordana musae; assay: in vitro-Test with fungal microorganisms, Method A (tables E1-E8); format: cell-based; conditions: mixing partner alone
Method in brief: (§3)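 First, compound in methanol with alkylaryl-polyglycol-ether was dried down in the plate. Next, spore or mycelium suspension in potato dextrose broth was added and extinction read at 620 nm. After 3-5 days at 20° C, 85% RH, reading was repeated and efficacy scored against untreated wells.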

[3] = system: Colletotrichum lindemuthianum; assay: in vitro-Test with fungal microorganisms, Method A (tables D1-D8); format: cell-based; conditions: for inhibition of growth at 0.008 ppm / inhibition of growth at 0.04 ppm / inhibition of growth at 0.2 ppm / inhibition of growth at 1 ppm: Colletotrichum lindemuthianum, read-out: Efficacy %
Method in brief: as §3

[4] = system: Cercospora beticola; assay: in vitro-Test with fungal microorganisms, Method A (tables C1-C10); format: cell-based
Method in brief: as §3

[5] = system: Colletotrichum coccodes; assay: in vitro-Test with fungal microorganisms, Method B (tables J1-J11); format: cell-based
Method in brief: (§4)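 Efficacy scale: 0% means growth equal to the untreated control, 100% means none detected. Compounds are dried from methanol with emulsifier before adding inoculated growth medium; incubation at 20° C., 85% relative humidity for 3 to 7 days precedes photometric inhibition readout.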

[6] = system: Cercospora beticola; assay: in vitro-Test with fungal microorganisms, Method B (tables C11-C20); format: cell-based
Method in brief: as §4

[7] = system: Botrytis cinerea; assay: in vitro-Test with fungal microorganisms, Method A (tables B1-B14); format: cell-based
Method in brief: as §3

[8] = system: Diaporthe citri; assay: in vitro-Test with fungal microorganisms, Method A (tables F1-F11); format: cell-based
Method in brief: as §3

[9] = system: Parastagonospora nodorum; assay: in vitro-Test with fungal microorganisms, Method B (tables H5-H8); format: cell-based
Protocol: as §1
Wells of 96-well microtiter plates are filled with 30 μl of a preparation of test compound or compound combination in methanol+emulsifier alkylaryl-polyglycol-ether. Thereafter, the solvent is evaporated in a hood. At the next step, 200 μl of liquid growth medium is given, that has been amended with an appropriate concentration of spores or mycelium suspension of the test fungus.
With the aid of a photometer, the extinction in all wells is measured at the wavelength of 600 nm.
The microtiter plates are incubated for 3 to 7 days at 20° C. and 85% relative humidity. After the incubation inhibition of growth is determined photometrically. Efficacy is calculated in relation to the untreated control, 0% efficacy means fungal growth as high as in untreated control while 100% efficacy means no fungal growth is measured.
as §2

[10] = system: Cordana musae; assay: in vitro-Test with fungal microorganisms, Method B (tables E9-E16); format: cell-based; conditions: single active
Method in brief: as §4

[11] = system: Fusarium culmorum; assay: in vitro-Test with fungal microorganisms, Method B (tables G5-G15); format: cell-based
Method in brief: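 Read photometrically at 600 nm after 3-7 days at 20° C and 85% relative humidity, Fusarium culmorum growth inhibition is expressed against untreated control. Wells hold solvent-evaporated compound (from methanol/emulsifier) overlaid with spore- or mycelium-amended growth medium.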

[12] = system: Alternaria alternate; assay: in vitro-Test with fungal microorganisms, Method A (tables A1-A12); format: cell-based, Alternaria alternata; conditions: applied alone
Method in brief: as §3

[13] = system: Alternaria alternata; assay: in vitro-Test with fungal microorganisms, Method B (tables A13-A22); format: cell-based
Method in brief: as §4

[14] = system: Botrytis cinerea; assay: in vitro-Test with fungal microorganisms, Method B (tables B15-B18); format: cell-based
Method in brief: as §4

[15] = Botrytis cinerea, read-out: Efficacy
[16] = Botrytis cinerea, alone, read-out: Efficacy %

## CC(C)(C)C(O)(CCc1ccc(Cl)cc1)Cn1cncn1 (stereo not shown) [(1.021) tebuconazole, tebuconazole]
[1]; 0.008 ppm
  inhibition of growth at 0.008 ppm: 8%
[1]; 0.04 ppm
  inhibition of growth at 0.04 ppm: 21%
[1]; 1.0 ppm
  inhibition of growth at 1 ppm: 98%
[2]; Neocordana musae, 0.04 ppm, read-out: Efficacy %
  inhibition of growth at 0.04 ppm: 0%
[2]; Neocordana musae, 0.2 ppm, read-out: Efficacy %
  inhibition of growth at 0.2 ppm: 29%
[2]; 1.0 ppm
  Efficacy %: 99%
[3]; mixing partner alone, 0.008 ppm
  inhibition of growth at 0.008 ppm: 32%
[3]; mixing partner alone, 0.04 ppm
  inhibition of growth at 0.04 ppm: 0%
[3]; mixing partner alone, 0.2 ppm
  inhibition of growth at 0.2 ppm: 17%
[3]; mixing partner alone, 1.0 ppm
  inhibition of growth at 1 ppm: 35%
[3]; single active at 0.008 ppm
  inhibition of growth at 0.008 ppm: 0%
[3]; single active at 0.04 ppm
  inhibition of growth at 0.04 ppm: 13%
[3]; single active at 0.2 ppm
  inhibition of growth at 0.2 ppm: 0%
[3]; single active at 1.0 ppm
  inhibition of growth at 1 ppm: 4%
[4]; Cercospora beticola, 0.008 ppm alone, read-out: Efficacy %
  inhibition of growth at 0.008 ppm: 12%
[4]; Cercospora beticola, 0.04 ppm alone, read-out: Efficacy %
  inhibition of growth at 0.04 ppm: 32%
[4]; Cercospora beticola, 0.2 ppm alone, read-out: Efficacy %
  inhibition of growth at 0.2 ppm: 100%
[5]; Colletotrichum coccodes, 0.04 ppm, read-out: Efficacy %
  inhibition of growth at 0.04 ppm: 0%
[5]; Colletotrichum coccodes, read-out: Efficacy %
  inhibition of growth at 0.2 ppm: 4%
[5]; Colletotrichum coccodes, applied alone, 0.008 ppm, read-out: Efficacy %
  inhibition of growth at 0.008 ppm: 0%
[5]; Colletotrichum coccodes, applied alone, 0.04 ppm, read-out: Efficacy %
  inhibition of growth at 0.04 ppm: 0%
[5]; Colletotrichum coccodes, applied alone, read-out: Efficacy %
  inhibition of growth at 0.2 ppm: 0%
[5]; Colletotrichum coccodes, single active compound at 0.008 ppm, read-out: Efficacy %
  inhibition of growth at 0.008 ppm: 0%
[5]; Colletotrichum coccodes, single active compound at 0.04 ppm, read-out: Efficacy %
  inhibition of growth at 0.04 ppm: 7%
[5]; Colletotrichum coccodes, single active compound at 1 ppm, read-out: Efficacy %
  inhibition of growth at 1 ppm: 87%
[6]; Cercospora beticola, single compound, 0.008 ppm, read-out: Efficacy %
  inhibition of growth at 0.008 ppm: 4%
[6]; Cercospora beticola, single compound, 0.04 ppm, read-out: Efficacy %
  inhibition of growth at 0.04 ppm: 1%
[6]; Cercospora beticola, single compound, 0.2 ppm, read-out: Efficacy %
  inhibition of growth at 0.2 ppm: 62%
[7]; [15]
  inhibition of growth at 0.04 ppm: 0%
  inhibition of growth at 0.2 ppm: 37%
[7]; Botrytis cinerea, 1.0 ppm, read-out: Efficacy
  inhibition of growth at 1 ppm: 94%
[7]; Botrytis cinerea, alone, 0.008 ppm, read-out: Efficacy %
  inhibition of growth at 0.008 ppm: 0%
[7]; [16]
  inhibition of growth at 0.04 ppm: 0%
  inhibition of growth at 0.2 ppm: 45%
[8]; Diaporthe citri, applied alone, 0.008 ppm, read-out: Efficacy
  inhibition of growth at 0.008 ppm: 28%
[8]; Diaporthe citri, applied alone, 0.2 ppm, read-out: Efficacy
  inhibition of growth at 0.2 ppm: 89%
[9]; Parastagonospora nodorum, 0.008 ppm, read-out: Efficacy
  inhibition of growth at 0.008 ppm: 0%
[9]; Parastagonospora nodorum, 0.04 ppm, read-out: Efficacy
  inhibition of growth at 0.04 ppm: 0%
[9]; Parastagonospora nodorum, 0.2 ppm, read-out: Efficacy
  inhibition of growth at 0.2 ppm: 60%
[9]; Parastagonospora nodorum, 1 ppm, read-out: Efficacy
  inhibition of growth at 1 ppm: 100%
[10]; Neocordana musae, 0.04 ppm, read-out: Efficacy
  inhibition of growth at 0.04 ppm: 2%
[10]; Neocordana musae, 0.2 ppm, read-out: Efficacy
  inhibition of growth at 0.2 ppm: 25%
[10]; Neocordana musae, 1 ppm, read-out: Efficacy
  inhibition of growth at 1 ppm: 71%
[11]; Fusarium culmorum, 1 ppm, alone, read-out: Efficacy
  inhibition of growth at 1 ppm: 79%
[12]; Alternaria, 0.008 ppm, read-out: Efficacy %
  inhibition of growth at 0.008 ppm: 13%
[12]; Alternaria, 0.04 ppm, read-out: Efficacy %
  inhibition of growth at 0.04 ppm: 19%
[12]; Alternaria, 0.2 ppm, read-out: Efficacy %
  inhibition of growth at 0.2 ppm: 26%

## CCCOc1nc2ccc(I)cc2c(=O)n1CCC [(13.004) proquinazid, proquinazid]
[2]; 0.08 ppm
  Efficacy %: 0%
[2]; 0.4 ppm
  Efficacy %: 0%
[2]; 2.0 ppm
  Efficacy %: 1%
[2]; 10.0 ppm
  Efficacy %: 26%
[3]; single active at 0.08 ppm
  Efficacy %: 0%
[3]; single active at 0.4 ppm
  Efficacy %: 0%
[3]; single active at 2.0 ppm
  Efficacy %: 2%
[3]; single active at 10.0 ppm
  Efficacy %: 25%
[4]; 0.08 ppm alone
  Efficacy %: 9%
[4]; 0.4 ppm alone
  Efficacy %: 0%
[4]; 2.0 ppm alone
  Efficacy %: 0%
[4]; 10.0 ppm, alone
  Efficacy %: 19%
[5]; single active compound at 0.4 ppm
  Efficacy %: 0%
[5]; single active compound at 2 ppm
  Efficacy %: 0%
[5]; single active compound at 10 ppm
  Efficacy %: 0%
[6]; 2 ppm
  Efficacy %: 0%
[6]; 10 ppm
  Efficacy %: 0%
[6]; single compound, 0.08 ppm
  Efficacy %: 0%
[7]; 0.08 ppm
  Efficacy: 13%
[7]; 0.4 ppm
  Efficacy: 0%
[7]; 2.0 ppm
  Efficacy: 0%
[7]; 10.0 ppm
  Efficacy: 0%
[7]; alone, 0.4 ppm
  Efficacy %: 0%
[7]; alone, 10.0 ppm
  Efficacy %: 0%
[8]; Table F10, 0.08 ppm alone
  Efficacy: 0%
[8]; Table F10, 0.4 ppm alone
  Efficacy: 0%
[8]; Table F10, 2.0 ppm alone
  Efficacy: 12%
[8]; Table F10, 10.0 ppm alone
  Efficacy: 24%
[8]; applied alone, 0.08 ppm
  Efficacy: 16%
[8]; applied alone, 0.4 ppm
  Efficacy: 0%
[8]; applied alone, 10.0 ppm
  Efficacy: 21%
[13]; 0.08 ppm
  Efficacy: 0%
[13]; 0.4 ppm
  Efficacy: 3%
[13]; 2 ppm
  Efficacy: 4%
[13]; single compound, 0.08 ppm
  Efficacy: 11%
[13]; single compound, 0.4 ppm
  Efficacy: 10%
[13]; single compound, 2 ppm
  Efficacy: 0%
[13]; single compound, 10 ppm
  Efficacy: 5%
[9]; 0.08 ppm
  Efficacy: 32%
[14]; 0.4 ppm alone
  Efficacy %: 0%
[14]; 2 ppm alone
  Efficacy %: 3% and 5%
[10]; 0.08 ppm
  Efficacy: 0% and 5%
[10]; 0.4 ppm
  Efficacy: 0% and 3%
[10]; 10 ppm
  Efficacy: 15% and 20%
[11]; 0.08 ppm alone
  Efficacy: 18%
[11]; 0.4 ppm alone
  Efficacy: 0%
[11]; single active compound, 0.08 ppm
  Efficacy: 2%
[11]; single active compound, 0.4 ppm
  Efficacy: 11%
[11]; single active compound, 2 ppm
  Efficacy: 8% and 7%
[12]; 0.08 ppm
  Efficacy %: 19%
[12]; 0.4 ppm
  Efficacy %: 6%
[12]; 2.0 ppm
  Efficacy %: 0%
[12]; 10.0 ppm
  Efficacy %: 9%
